Tested on: MV-4-11 cells
Assay: Gene expression microarray analysis (Affymetrix PrimeView) and GSEA
Assay type: cell-based, human
Parameters: RFU PODN (11730768_x_at) / Fold change /veh PODN (11730768_x_at) / RFU LINC00158 (11744669_a_at) / Fold change /veh LINC00158 (11744669_a_at) / RFU DUSP10 (11751237_a_at) / Fold change /veh DUSP10 (11751237_a_at) / RFU ID3 (11757404_x_at) / Fold change /veh ID3 (11757404_x_at) / RFU PLEKHG5 (11737974_s_at) / Fold change /veh PLEKHG5 (11737974_s_at) / RFU LRRC4B (11730491_at) / Fold change /veh LRRC4B (11730491_at) / RFU GIMAP4 (11747438_a_at) / Fold change /veh GIMAP4 (11747438_a_at) / RFU KRT8 (11758183_x_at) / Fold change /veh KRT8 (11758183_x_at) / RFU CNN1 (11734310_a_at) / Fold change /veh CNN1 (11734310_a_at) / RFU VPS37D (11726825_at) / Fold change /veh VPS37D (11726825_at) / RFU C10orf10 (11716522_x_at) / Fold change /veh C10orf10 (11716522_x_at) / RFU KIR2DL2 /// KIR2DL4 /// KIR2DL5A /// KIR2DL5B /// KIR2DS1 /// KIR2DS2 /// KIR2DS3 /// KIR2DS4 /// KIR3DL3 /// KIR3DL3 /// KIR3DS1 (11738374_at) / Fold change /veh KIR2DL2 /// KIR2DL4 /// KIR2DL5A /// KIR2DL5B /// KIR2DS1 /// KIR2DS2 /// KIR2DS3 /// KIR2DS4 /// KIR3DL3 /// KIR3DL3 /// KIR3DS1 (11738374_at) / RFU C1QL1 (11718748_at) / Fold change /veh C1QL1 (11718748_at) / RFU TMPRSS4 (11747572_a_at) / Fold change /veh TMPRSS4 (11747572_a_at) / RFU HAMP (11756126_x_at) / Fold change /veh HAMP (11756126_x_at) / RFU RNFT2 (11725882_a_at) / Fold change /veh RNFT2 (11725882_a_at) / RFU NR4A2 (11747474_a_at) / Fold change /veh NR4A2 (11747474_a_at) / RFU ABCC12 (11746883_a_at) / Fold change /veh ABCC12 (11746883_a_at) / RFU TMEM136 (11760407_x_at) / Fold change /veh TMEM136 (11760407_x_at) / RFU CLDN22 /// WWC2 (11732394_at) / Fold change /veh CLDN22 /// WWC2 (11732394_at) / RFU HLA-DPB1 (11760878_x_at) / Fold change /veh HLA-DPB1 (11760878_x_at) / RFU SPINT1 (11716480_a_at) / Fold change /veh SPINT1 (11716480_a_at) / RFU GAP43 (11754022_s_at) / Fold change /veh GAP43 (11754022_s_at) / RFU A4GNT (11735810_at) / Fold change /veh A4GNT (11735810_at) / RFU PRB3 (11715151_x_at) / Fold change /veh PRB3 (11715151_x_at) / RFU TUBB4B (11761932_at) / Fold change /veh TUBB4B (11761932_at) / RFU CAPN14 (11732068_a_at) / Fold change /veh CAPN14 (11732068_a_at) / RFU TMCC2 (11721928_a_at) / Fold change /veh TMCC2 (11721928_a_at) / RFU IRGQ (11745062_a_at) / Fold change /veh IRGQ (11745062_a_at) / RFU FAM174B (11720279_a_at) / Fold change /veh FAM174B (11720279_a_at) / RFU TMPRSS4 (11748680_a_at) / Fold change /veh TMPRSS4 (11748680_a_at) / RFU FAM212B (11763350_a_at) / Fold change /veh FAM212B (11763350_a_at) / RFU PLEKHG5 (11743358_a_at) / Fold change /veh PLEKHG5 (11743358_a_at) / RFU ZSCAN30 (11745921_a_at) / Fold change /veh ZSCAN30 (11745921_a_at) / RFU CMKLR1 (11741424_a_at) / Fold change /veh CMKLR1 (11741424_a_at) / RFU LOC101060620 /// MAPK8IP1 (11723275_at) / Fold change /veh LOC101060620 /// MAPK8IP1 (11723275_at) / RFU SPTSSB (11747773_x_at) / Fold change /veh SPTSSB (11747773_x_at) / RFU PRSS12 (11739890_at) / Fold change /veh PRSS12 (11739890_at) / RFU BIN1 (11741810_x_at) / Fold change /veh BIN1 (11741810_x_at) / RFU WNT11 (11732464_a_at) / Fold change /veh WNT11 (11732464_a_at) / RFU C10orf10 (11716521_a_at) / Fold change /veh C10orf10 (11716521_a_at) / RFU C5orf56 (11738089_at) / Fold change /veh C5orf56 (11738089_at) / RFU CYB561 (11721691_x_at) / Fold change /veh CYB561 (11721691_x_at) / RFU ANKRD19P (11752326_a_at) / Fold change /veh ANKRD19P (11752326_a_at) / RFU OR2T12 /// OR2T33 /// OR2T8 (11738714_s_at) / Fold change /veh OR2T12 /// OR2T33 /// OR2T8 (11738714_s_at) / RFU VCAN (11748164_a_at) / Fold change /veh VCAN (11748164_a_at) / RFU JSRP1 (11732532_at) / Fold change /veh JSRP1 (11732532_at) / RFU KRTAP10-11 (11738290_x_at) / Fold change /veh KRTAP10-11 (11738290_x_at) / RFU MYO3A (11730013_a_at) / Fold change /veh MYO3A (11730013_a_at) / RFU EBF3 (11725865_a_at) / Fold change /veh EBF3 (11725865_a_at) / RFU CAMK2N1 (11719241_x_at) / Fold change /veh CAMK2N1 (11719241_x_at) / RFU C5orf56 (11738088_a_at) / Fold change /veh C5orf56 (11738088_a_at) / RFU OLFML3 (11715873_a_at) / Fold change /veh OLFML3 (11715873_a_at) / RFU LOC100653217 /// NTM (11731650_a_at) / Fold change /veh LOC100653217 /// NTM (11731650_a_at) / RFU MAPK11 (11762145_a_at) / Fold change /veh MAPK11 (11762145_a_at) / RFU FIZ1 (11724087_x_at) / Fold change /veh FIZ1 (11724087_x_at) / RFU OASL (11726364_x_at) / Fold change /veh OASL (11726364_x_at) / RFU SOX15 (11748057_x_at) / Fold change /veh SOX15 (11748057_x_at) / RFU CD79A (11719716_a_at) / Fold change /veh CD79A (11719716_a_at) / RFU HIST1H1D (11736915_at) / Fold change /veh HIST1H1D (11736915_at) / RFU CASKIN2 (11723855_a_at) / Fold change /veh CASKIN2 (11723855_a_at) / RFU LOC730098 (11760151_x_at) / Fold change /veh LOC730098 (11760151_x_at) / RFU OR4N2 (11742367_at) / Fold change /veh OR4N2 (11742367_at) / RFU PRRT2 (11749266_a_at) / Fold change /veh PRRT2 (11749266_a_at) / RFU SNX32 (11753110_a_at) / Fold change /veh SNX32 (11753110_a_at) / RFU CDHR5 (11726645_a_at) / Fold change /veh CDHR5 (11726645_a_at) / RFU RCAN1 (11760418_a_at) / Fold change /veh RCAN1 (11760418_a_at) / RFU FAM167A (11723789_a_at) / Fold change /veh FAM167A (11723789_a_at) / RFU FAM26E (11764081_at) / Fold change /veh FAM26E (11764081_at) / RFU ISYNA1 (11749810_s_at) / Fold change /veh ISYNA1 (11749810_s_at) / RFU ACY1 (11761880_at) / Fold change /veh ACY1 (11761880_at) / RFU 11764098_at / Fold change /veh 11764098_at / RFU SAMD14 (11745864_x_at) / Fold change /veh SAMD14 (11745864_x_at) / RFU NPB (11741838_a_at) / Fold change /veh NPB (11741838_a_at) / RFU TMPRSS6 (11731388_a_at) / Fold change /veh TMPRSS6 (11731388_a_at) / RFU KRTAP10-2 (11738614_at) / Fold change /veh KRTAP10-2 (11738614_at) / RFU ARHGAP8 /// PRR5-ARHGAP8 (11727945_x_at) / Fold change /veh ARHGAP8 /// PRR5-ARHGAP8 (11727945_x_at) / RFU KRTAP5-7 /// NADSYN1 (11734609_at) / Fold change /veh KRTAP5-7 /// NADSYN1 (11734609_at) / RFU RASL12 (11751679_a_at) / Fold change /veh RASL12 (11751679_a_at) / RFU CDKN2B (11736163_a_at) / Fold change /veh CDKN2B (11736163_a_at) / RFU PRF1 (11729649_at) / Fold change /veh PRF1 (11729649_at) / RFU, ZNF638 /// ZNF638-IT1 / Fold change vs veh, ZNF638 /// ZNF638-IT1 / RFU, PANK3 / Fold change vs veh, PANK3 / RFU, SH3YL1 / Fold change vs veh, SH3YL1 / RFU, ZEB2 / Fold change vs veh, ZEB2 / RFU, NRIP1 / Fold change vs veh, NRIP1 / RFU, PTTG1IP / Fold change vs veh, PTTG1IP / RFU, CAPN2 / Fold change vs veh, CAPN2 / RFU, MED14 / Fold change vs veh, MED14 / RFU, SNORA58 / Fold change vs veh, SNORA58 / RFU, C1orf63 / Fold change vs veh, C1orf63 / RFU, LRRFIP1 / Fold change vs veh, LRRFIP1 / RFU, NDUFAF7 / Fold change vs veh, NDUFAF7 / RFU, SLC12A2 / Fold change vs veh, SLC12A2 / RFU, IBTK / Fold change vs veh, IBTK / RFU, ESF1 / Fold change vs veh, ESF1 / Fold change vs veh, TMEM50B / RFU, TAOK1 / Fold change vs veh, TAOK1 / RFU, ACBD3 / Fold change vs veh, ACBD3 / RFU, TMA16 / Fold change vs veh, TMA16 / RFU, RWDD3 / Fold change vs veh, RWDD3 / RFU, BCAT1 / Fold change vs veh, BCAT1 / RFU, EDEM3 / Fold change vs veh, EDEM3 / RFU, TMEM33 / Fold change vs veh, TMEM33 / RFU, WDR75 / Fold change vs veh, WDR75 / RFU, AHCTF1 / Fold change vs veh, AHCTF1 / RFU, TFRC / Fold change vs veh, TFRC / RFU, ZDHHC17 / Fold change vs veh, ZDHHC17 / RFU, NOM1 / Fold change vs veh, NOM1 / RFU, ARL8B / Fold change vs veh, ARL8B / RFU, ZBTB11 / Fold change vs veh, ZBTB11 / RFU, TAMM41 / Fold change vs veh, TAMM41 / RFU, KIAA1704 /// LOC100996395 / Fold change vs veh, KIAA1704 /// LOC100996395 / RFU, ING1 / Fold change vs veh, ING1 / RFU, TRMT61B / Fold change vs veh, TRMT61B / RFU, FUBP3 / Fold change vs veh, FUBP3 / RFU, TP53 / Fold change vs veh, TP53 / RFU, TNKS2 / Fold change vs veh, TNKS2 / RFU, ZFP14 / Fold change vs veh, ZFP14 / RFU, ACTR2 / Fold change vs veh, ACTR2 / RFU, PPP3R1 / Fold change vs veh, PPP3R1 / RFU, PIK3R1 / Fold change vs veh, PIK3R1 / RFU, HNRNPA1 / Fold change vs veh, HNRNPA1 / RFU, RNF170 / Fold change vs veh, RNF170 / RFU, ZNF28 / Fold change vs veh, ZNF28 / RFU, RNGTT / Fold change vs veh, RNGTT / RFU, OGT / Fold change vs veh, OGT / RFU, BRD1 / Fold change vs veh, BRD1 / RFU, MARS / Fold change vs veh, MARS / RFU, ZNF655 / Fold change vs veh, ZNF655 / RFU, FAHD1 / Fold change vs veh, FAHD1 / RFU, BDP1 / Fold change vs veh, BDP1 / RFU, LRRCC1 / Fold change vs veh, LRRCC1 / RFU, ARID1A / Fold change vs veh, ARID1A / RFU, ZNF146 / Fold change vs veh, ZNF146 / RFU, ZNF330 / Fold change vs veh, ZNF330 / RFU, GPN3 / Fold change vs veh, GPN3 / RFU, C9orf123 / Fold change vs veh, C9orf123 / RFU, N4BP2L2 / Fold change vs veh, N4BP2L2 / RFU, ARFIP1 / Fold change vs veh, ARFIP1 / RFU, FAM179B / Fold change vs veh, FAM179B / RFU, BCL10 / Fold change vs veh, BCL10 / RFU, UHRF1BP1L / Fold change vs veh, UHRF1BP1L / RFU, BET1 / Fold change vs veh, BET1 / RFU, CNOT2 / Fold change vs veh, CNOT2 / RFU, ZNF268 / Fold change vs veh, ZNF268 / Fold change vs veh, ZNF507 / RFU, DGCR2 / Fold change vs veh, DGCR2 / RFU, WDSUB1 / Fold change vs veh, WDSUB1 / Fold change vs veh, HSP90B1 /// MIR3652 / RFU, ADSS / Fold change vs veh, ADSS / RFU, GK / Fold change vs veh, GK / RFU, ZNF148 / Fold change vs veh, ZNF148 / RFU, TAF9 / Fold change vs veh, TAF9 / RFU, SLC1A5 / Fold change vs veh, SLC1A5 / RFU, SLMO2 / Fold change vs veh, SLMO2 / RFU, ABCC4 / Fold change vs veh, ABCC4 / RFU, LOC101060439 /// RAP1B / Fold change vs veh, LOC101060439 /// RAP1B / RFU, RFX7 / Fold change vs veh, RFX7 / RFU, GTPBP10 / Fold change vs veh, GTPBP10 / RFU, CNEP1R1 / Fold change vs veh, CNEP1R1 / RFU, BIVM-ERCC5 /// ERCC5 / Fold change vs veh, BIVM-ERCC5 /// ERCC5 / RFU, ILF3 / Fold change vs veh, ILF3 / RFU 11762660_at / Fold change /veh 11762660_at / RFU VCAN (11757783_s_at) / Fold change /veh VCAN (11757783_s_at) / RFU DDX43 (11728927_at) / Fold change /veh DDX43 (11728927_at) / RFU KRT8 (11758188_x_at) / Fold change /veh KRT8 (11758188_x_at) / RFU NKD1 (11759106_at) / Fold change /veh NKD1 (11759106_at) / RFU SRD5A1 (11742802_a_at) / Fold change /veh SRD5A1 (11742802_a_at) / RFU TPSAB1 /// TPSB2 (11721975_s_at) / Fold change /veh TPSAB1 /// TPSB2 (11721975_s_at) / RFU GSTM3 (11746129_a_at) / Fold change /veh GSTM3 (11746129_a_at) / RFU IL23R (11737362_x_at) / Fold change /veh IL23R (11737362_x_at) / RFU TMEM51 (11727254_a_at) / Fold change /veh TMEM51 (11727254_a_at) / RFU PIWIL2 (11732686_x_at) / Fold change /veh PIWIL2 (11732686_x_at) / RFU ORM1 (11744905_x_at) / Fold change /veh ORM1 (11744905_x_at) / RFU CCDC152 (11743942_at) / Fold change /veh CCDC152 (11743942_at) / RFU ECM1 (11717891_a_at) / Fold change /veh ECM1 (11717891_a_at) / RFU IL23R (11748794_a_at) / Fold change /veh IL23R (11748794_a_at) / RFU TNFAIP8L3 (11732012_x_at) / Fold change /veh TNFAIP8L3 (11732012_x_at) / RFU MBOAT4 (11741988_at) / Fold change /veh MBOAT4 (11741988_at) / RFU 11764193_at / Fold change /veh 11764193_at / RFU TMEM53 (11763286_at) / Fold change /veh TMEM53 (11763286_at) / RFU MAGEB2 (11727129_at) / Fold change /veh MAGEB2 (11727129_at) / RFU TMEM200A (11744735_a_at) / Fold change /veh TMEM200A (11744735_a_at) / RFU CCDC152 (11751479_a_at) / Fold change /veh CCDC152 (11751479_a_at) / RFU FAM211A (11726209_a_at) / Fold change /veh FAM211A (11726209_a_at) / RFU RGS16 (11746705_a_at) / Fold change /veh RGS16 (11746705_a_at) / RFU VCAN (11755009_s_at) / Fold change /veh VCAN (11755009_s_at) / RFU RHOB (11743442_s_at) / Fold change /veh RHOB (11743442_s_at) / RFU RGS16 (11720943_a_at) / Fold change /veh RGS16 (11720943_a_at) / RFU RGS16 (11720944_at) / Fold change /veh RGS16 (11720944_at) / RFU, VPS4B / Fold change vs veh, VPS4B / RFU, CREB1 / Fold change vs veh, CREB1 / RFU, DNAJC13 / Fold change vs veh, DNAJC13 / RFU, GNAQ / Fold change vs veh, GNAQ / RFU, CDK5R1 / Fold change vs veh, CDK5R1 / RFU, ZRANB3 / Fold change vs veh, ZRANB3 / RFU, CUL4A / Fold change vs veh, CUL4A / RFU, CCNY / Fold change vs veh, CCNY / RFU, UFL1 / Fold change vs veh, UFL1 / RFU, COG3 / Fold change vs veh, COG3 / RFU, DIAPH2 / Fold change vs veh, DIAPH2 / RFU, SKA2 / Fold change vs veh, SKA2 / RFU, AFF3 / Fold change vs veh, AFF3 / RFU, LMF1 / Fold change vs veh, LMF1 / RFU, IPO11 / Fold change vs veh, IPO11 / RFU, DFFB / Fold change vs veh, DFFB / RFU, FOXP1 / Fold change vs veh, FOXP1 / RFU, CARD8 / Fold change vs veh, CARD8 / RFU, STRN3 / Fold change vs veh, STRN3 / RFU, ADK / Fold change vs veh, ADK / RFU, RASSF2 / Fold change vs veh, RASSF2 / RFU, WIPF1 / Fold change vs veh, WIPF1 / RFU, LARP1B / Fold change vs veh, LARP1B / RFU, RASA1 / Fold change vs veh, RASA1 / RFU, RB1 / Fold change vs veh, RB1 / RFU, PPFIA1 / Fold change vs veh, PPFIA1 / RFU, MAT2A / Fold change vs veh, MAT2A / RFU, CCT5 / Fold change vs veh, CCT5 / RFU, WDR92 / Fold change vs veh, WDR92 / RFU, CUX1 / Fold change vs veh, CUX1 / RFU, TTC7A / Fold change vs veh, TTC7A / RFU, TMEM135 / Fold change vs veh, TMEM135 / RFU, DEPTOR / Fold change vs veh, DEPTOR / RFU, CPM / Fold change vs veh, CPM / RFU, DNAJB6 / Fold change vs veh, DNAJB6 / RFU, CACNA2D3 / Fold change vs veh, CACNA2D3 / RFU, DTX4 / Fold change vs veh, DTX4 / RFU, TFCP2 / Fold change vs veh, TFCP2 / RFU, GMCL1 /// GMCL1P1 / Fold change vs veh, GMCL1 /// GMCL1P1 / RFU, AEBP2 / Fold change vs veh, AEBP2 / RFU, SNHG1 /// SNORD22 /// SNORD25 /// SNORD26 /// SNORD27 /// SNORD28 /// SNORD29 /// SNORD31 / Fold change vs veh, SNHG1 /// SNORD22 /// SNORD25 /// SNORD26 /// SNORD27 /// SNORD28 /// SNORD29 /// SNORD31 / Fold change (Aza/veh), C12orf56 (ProbeSet 11735607_a_at) / Fold change (ACY-1035/veh), C12orf56 (ProbeSet 11735607_a_at) / Fold change (Aza/veh), FGFR1OP (ProbeSet 11751329_s_at) / Fold change (ACY-1035/veh), FGFR1OP (ProbeSet 11751329_s_at) / Fold change (Aza/veh), VPS36 (ProbeSet 11739960_a_at) / Fold change (ACY-1035/veh), VPS36 (ProbeSet 11739960_a_at) / RFU SYPL1 (11715823_x_at) / Fold change /veh SYPL1 (11715823_x_at) / RFU IGFBP7 (11715501_s_at) / Fold change /veh IGFBP7 (11715501_s_at) / RFU REEP3 (11722064_at) / Fold change /veh REEP3 (11722064_at) / RFU IGLL1 (11728026_x_at) / Fold change /veh IGLL1 (11728026_x_at): dose or concentration left out as unconfirmed
Details: ProbeSet 11732277_a_at; LIST D

In the case of `Nc1ccc(-c2cccs2)cc1NC(=O)c1ccc2c(c1)cc(C1CC1)n2CCN1CCOCC1` [ACY-1035], the “RFU, FOXP1” value is reported as 575.26 RFU.

— paper PMC5218480 (PLoS ONE, 2017)
